The source of these data is paper PMC7560867, “Unique dynamic mode between Artepillin C and human serum albumin implies the characteristics of Brazilian green propolis representative bioactive component” (Scientific Reports, 2020).

For this experiment, the target named is T1, Human serum albumin (HSA) (Homo sapiens, UniProt P02768).
T1 construct: gene ALB
As to the kind of experiment: intrinsic fluorescence quenching, excitation […] nm, emission […] nm. It counts as binding. As to conditions: 295 K, PBS pH 7.4, 0.5 uM HSA, no warfarin; double-log; n 0.8430; quenching described as dynamic; Sudlow's site I (IIA).

T1 sequence (P02768 25-609): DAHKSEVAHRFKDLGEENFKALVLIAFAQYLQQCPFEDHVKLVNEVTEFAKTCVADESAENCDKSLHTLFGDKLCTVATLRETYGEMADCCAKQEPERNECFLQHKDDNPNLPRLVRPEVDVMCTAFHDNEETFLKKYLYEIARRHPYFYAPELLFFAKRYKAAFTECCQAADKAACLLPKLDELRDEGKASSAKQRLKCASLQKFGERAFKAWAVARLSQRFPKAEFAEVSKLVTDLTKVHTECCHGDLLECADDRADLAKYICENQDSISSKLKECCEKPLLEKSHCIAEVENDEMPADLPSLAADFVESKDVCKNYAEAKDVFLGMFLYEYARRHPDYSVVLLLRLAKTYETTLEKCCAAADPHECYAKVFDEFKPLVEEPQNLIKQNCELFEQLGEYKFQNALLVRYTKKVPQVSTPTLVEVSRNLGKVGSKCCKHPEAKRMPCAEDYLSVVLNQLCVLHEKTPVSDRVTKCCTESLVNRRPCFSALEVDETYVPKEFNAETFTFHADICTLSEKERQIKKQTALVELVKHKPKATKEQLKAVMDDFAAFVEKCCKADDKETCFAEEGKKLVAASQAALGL

Regarding `CC(C)=CCc1cc(/C=C/C(=O)O)cc(CC=C(C)C)c1O` [Artepillin C, 3,5-diprenyl-4-hydroxycinnamic acid], the “KA” value amounted to 908000 L/mol.
